# Reference: ChEMBL document CHEMBL1122939, “N6-cycloalkyladenosines. Potent, A1-selective adenosine agonists” (J Med Chem, 1985)
# Key:
# [1] = Lipophilicity value was evaluated; format: physicochemical; conditions: octanol/water
# Adenosine A2 receptor = Adenosine A2 receptor (Rattus norvegicus, UniProt P29276+P30543)
# Description: Displacement of [3H]-NECA from adenosine A2 receptor of rat striatal membrane
# Adenosine receptor A1 = molecular target: T1, Adenosine receptor A1 (Rattus norvegicus, UniProt P25099)
# T1 sequence (P25099 whole entry): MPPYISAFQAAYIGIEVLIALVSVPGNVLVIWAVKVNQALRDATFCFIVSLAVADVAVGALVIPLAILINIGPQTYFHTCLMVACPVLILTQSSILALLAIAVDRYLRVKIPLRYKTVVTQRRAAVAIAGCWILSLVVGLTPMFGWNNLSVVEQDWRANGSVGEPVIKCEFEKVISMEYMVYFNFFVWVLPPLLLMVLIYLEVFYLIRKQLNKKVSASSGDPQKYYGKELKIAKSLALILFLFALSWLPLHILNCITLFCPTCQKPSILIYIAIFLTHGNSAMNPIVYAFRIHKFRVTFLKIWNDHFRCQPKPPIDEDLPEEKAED
Log k [1],Ki (Adenosine A2 receptor) [nM],Ki (Adenosine receptor A1) [nM],SMILES
2.9,2450,4.03,OC[C@H]1O[C@@H](n2cnc3c(NC4CCCCCCC4)ncnc32)[C@H](O)[C@@H]1O
2.4,1690,2.79,OC[C@H]1O[C@@H](n2cnc3c(NC4CCCCCC4)ncnc32)[C@H](O)[C@@H]1O
1.22,263,0.777,OC[C@H]1O[C@@H](n2cnc3c(NC4CCC4)ncnc32)[C@H](O)[C@@H]1O
1.56,462,–,OC[C@H]1O[C@@H](n2cnc3c(NC4CCCC4)ncnc32)[C@H](O)[C@@H]1O [N6-CYCLOPENTYLADENOSINE]

# Continued, compound first:
SMILES,Log k [1],Ki (Adenosine A2 receptor) [nM],Ki (Adenosine receptor A1) [nM]
OC[C@H]1O[C@@H](n2cnc3c(NC4CC4)ncnc32)[C@H](O)[C@@H]1O,0.53,1240,319
Nc1nc(Cl)nc2c1ncn2[C@@H]1O[C@H](CO)[C@@H](O)[C@H]1O,–,–,8.74
OC[C@H]1O[C@@H](n2cnc3c(NC4CCCCC4)ncnc32)[C@H](O)[C@@H]1O,1.6,–,–
OC[C@H]1OC(n2cnc3c(NC4CCCCCCCCC4)ncnc32)[C@H](O)[C@@H]1O (some centres undefined),3.62,5190,100
OC[C@H]1OC(n2cnc3c(NC4CCCCCCCCCCC4)ncnc32)[C@H](O)[C@@H]1O (some centres undefined),4.52,47700,5390
Cn1c(=O)[nH]c2c(ncn2C2O[C@H](CO)[C@@H](O)[C@H]2O)c1=N (some centres undefined),–,3250,144
